Data taken from US6579900B2, “Anandamide amidase inhibitors as analgesic agents” (priority 1996, dated 2003).
Read-outs that look alike come from different tables or passages of the source.

Assays:
anandamide amidase [1] = biological target: T1, anandamide amidase (Rattus norvegicus, UniProt P97612); test: Anandamide amidase assay in vitro, crude rat brain homogenate; format: biochemical
T1 construct: Crude rat brain homogenate was obtained by decapitating female adult Sprague-Dawley rats, dissecting the desired tissue and homogenizing; from tissue; host or cells: crude brain homogenate of female adult Sprague-Dawley rats
T1 sequence (P97612 1-579): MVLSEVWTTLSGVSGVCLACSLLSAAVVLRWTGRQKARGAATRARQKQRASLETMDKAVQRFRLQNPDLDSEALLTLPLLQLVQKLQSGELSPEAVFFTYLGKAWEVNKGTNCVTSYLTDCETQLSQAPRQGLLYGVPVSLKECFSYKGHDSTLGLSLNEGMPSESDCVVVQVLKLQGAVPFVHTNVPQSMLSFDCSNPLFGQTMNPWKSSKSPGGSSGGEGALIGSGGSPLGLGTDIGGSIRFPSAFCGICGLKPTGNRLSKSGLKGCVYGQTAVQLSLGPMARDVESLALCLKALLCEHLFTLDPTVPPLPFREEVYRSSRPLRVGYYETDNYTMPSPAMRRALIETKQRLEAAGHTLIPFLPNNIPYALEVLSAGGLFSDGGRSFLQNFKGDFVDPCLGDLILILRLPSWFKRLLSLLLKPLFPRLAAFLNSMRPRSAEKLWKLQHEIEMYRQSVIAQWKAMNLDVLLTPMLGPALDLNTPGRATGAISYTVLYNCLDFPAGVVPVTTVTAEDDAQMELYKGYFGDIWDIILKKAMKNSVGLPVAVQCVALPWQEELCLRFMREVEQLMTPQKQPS
Experimental: The assay of the anandamide amidase in vitro was performed as described previously (Deutsch, D. G. and S. A. Chin, Biochem. Pharmacol. 46:791-796 (1993)). The indicated amount of each compound was preincubated in a buffer consisting of 300 μg of crude rat brain homogenate protein, 500 μg/ml fatty acid-free bovine serum albumin, in phosphate-buffered saline in a final volume of 1.0 ml, for 10 minutes at 37° C. Crude rat brain homogenate was obtained by decapitating female adult Sprague-Dawley rats, dissecting the desired tissue and homogenizing in five volumes of ice-cold TE (10 mM Tris-HCl, 1 mM EDTA, pH 7.6). Substrate (27.7 μM anandamide+0.2 μCi of 221 Ci/mmol [^3H]anandamide ([arachidonyl-5,6,8,9,11,12,14,15-^3H]ethanolamide)) (obtained from the National Institute on Drug Abuse) was then added and the samples incubated for 10 minutes. The reaction was quenched by the addition of chloroform:methanol (1:1) and enzyme activity was analyzed by TLC as described in Example 1.

male MF1 mice = test: Tail flick test of analgesia ("rat flick test"); details: mouse, in vivo
anandamide amidase [2] = biological target: T2, anandamide amidase (Mus musculus, UniProt O08914); test: Anandamide amidase assay in intact neuroblastoma cells ([3H]anandamide levels); format: cell-based
T2 construct: The assay of the anandamide amidase in intact neuroblastoma cells; endogenous in cells; host or cells: N18TG2 neuroblastoma cells
T2 sequence (O08914 1-579): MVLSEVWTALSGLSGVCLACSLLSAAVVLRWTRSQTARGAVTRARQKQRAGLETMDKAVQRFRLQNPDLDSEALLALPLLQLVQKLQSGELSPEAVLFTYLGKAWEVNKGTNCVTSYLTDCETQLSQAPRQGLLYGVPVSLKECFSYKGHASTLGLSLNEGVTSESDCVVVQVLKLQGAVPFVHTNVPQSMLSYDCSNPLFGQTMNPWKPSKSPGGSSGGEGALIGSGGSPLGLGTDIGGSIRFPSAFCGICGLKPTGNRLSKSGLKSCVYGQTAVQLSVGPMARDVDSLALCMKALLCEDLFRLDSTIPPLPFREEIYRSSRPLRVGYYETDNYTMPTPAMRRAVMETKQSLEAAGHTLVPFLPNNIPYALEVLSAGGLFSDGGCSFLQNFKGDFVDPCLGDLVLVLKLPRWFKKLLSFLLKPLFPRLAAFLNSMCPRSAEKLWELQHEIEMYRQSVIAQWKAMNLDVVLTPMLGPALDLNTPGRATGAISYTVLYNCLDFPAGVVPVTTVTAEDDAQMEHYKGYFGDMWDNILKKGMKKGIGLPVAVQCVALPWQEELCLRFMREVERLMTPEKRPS
Experimental: The experiments were performed with 4×10^6 neuroblastoma cells (N18TG2)/6-cm dish. Experimental cells were incubated in 2 ml of media, consisting of Ham's F-12/Dulbecco's modified Eagle's medium (Life Technologies, Inc.) with penicillin, streptomycin, and gentamicin plus 10% bovine calf serum (HyClone, Logan, Utah), plus the indicated concentration of inhibitor for 20 minutes. All cells were grown at 37° in a humidified atmosphere containing 5% CO2 in air. [^3H]Anandamide (0.2 μCi of 221 Ci/mmol of [^3H]anandamide) was added and the incubation continued for 1 hour. Control cells contained no inhibitor. At the end of the incubation, the cells were washed once with cell culture media and removed from the plates, after a brief incubation with 2 ml of 0.05% trypsin in 0.53 mM EDTA solution at 37° C. The amounts of [^3H]anandamide, [^3H]phospholipids, and [^3H]arachidonate in the cells and media were quantified by liquid scintillation counting of the silica scraped from the appropriate areas of the plate after quenching the reaction with chloroform methanol (1:1), extraction of the sample from the organic phase, and TLC analysis on channeled silica gel-coated plates, with a solvent system consisting of the organic layer of an ethyl acetate:hexane:acetic acid:water (100:50:20:100) mixture.

CB1 receptor = biological target: T3, CB1 receptor (Rattus norvegicus, UniProt P20272); details: rat brain membranes, FIG. 3; read-out: Ki in competition with [3H]CP-55940 binding to CB1
T3 construct: brain membranes were prepared from frozen rat brains; from tissue; host or cells: membranes from frozen rat brains
T3 sequence (P20272 whole entry): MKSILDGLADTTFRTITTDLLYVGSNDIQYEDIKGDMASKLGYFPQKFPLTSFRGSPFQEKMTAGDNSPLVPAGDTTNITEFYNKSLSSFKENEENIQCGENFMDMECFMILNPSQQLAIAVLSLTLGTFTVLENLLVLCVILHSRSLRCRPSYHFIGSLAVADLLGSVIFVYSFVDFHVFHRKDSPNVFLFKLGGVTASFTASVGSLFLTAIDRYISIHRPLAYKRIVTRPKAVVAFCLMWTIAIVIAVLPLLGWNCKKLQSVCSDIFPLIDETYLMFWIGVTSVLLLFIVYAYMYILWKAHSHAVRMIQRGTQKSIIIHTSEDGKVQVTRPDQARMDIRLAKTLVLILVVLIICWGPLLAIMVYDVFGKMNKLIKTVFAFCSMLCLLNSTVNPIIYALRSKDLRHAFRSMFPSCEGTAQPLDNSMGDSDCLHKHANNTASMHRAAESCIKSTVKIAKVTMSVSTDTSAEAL
Experimental: The filters were treated with 0.1% sodium dodecyl sulfate prior to addition of scintillation mixture and counting in a liquid scintillation counter.

[3] = crude rat brain homogenate, 10 min preincubation at 37° C., read-out: IC50 for inhibition of anandamide amidase

CCCCCCCCCCCCCCCCCCCCS(=O)(=O)F [Arachidylsulfonyl fluoride, arachidylsulfonyl fluoride]
concentration at which effective inhibitor of anandamide amidase (anandamide amidase [1]; crude rat brain homogenate): less than 100 nM

CCCCCCCCCCCCS(=O)(=O)F [laurylsulfonyl fluoride]
IC50 (anandamide amidase [1]; [3]): < 10 nM

CCCCCCCCCCCCCCS(=O)(=O)F [myristylsulfonyl fluoride]
IC50 (anandamide amidase [1]; [3]): < 10 nM

CCCCCCCCCCCCCCCCS(=O)(=O)F [palmitylsulfonyl fluoride]
analgesia (in words) (male MF1 mice): induce analgesia | increase of the level of undegraded anandamide (anandamide amidase [2]; 10 nM inhibitor, intact neuroblastoma cells (N18TG2)): 55 fold | IC50 (anandamide amidase [1]): < 10 nM

O=S(=O)(F)Cc1ccccc1 [phenylmethylsulfonyl fluoride, reference compound]
concentration required to achieve comparable levels of anandamide amidase inhibition (anandamide amidase [2]; comparable to over 50% of radioactivity in anandamide, N18TG2 cells): greater than 10 micromolar

CCCCCCCCCCCCCCCCCCS(=O)(=O)F [stearylsulfonyl fluoride]
IC50 (anandamide amidase [1]; [3]): < 10 nM

arachidonyl trifluoromethyl ketone
Ki (CB1 receptor): 1320 nM
